Experimental findings from patent US8178515B2, “β-hydroxy-γ-aminophosphonates and methods for the preparation and use thereof” (Nucitec S.A. de C.V., priority 2008, dated 2012) are described below.

One data set relates to chick embryos. Briefly: Teratogenicity assay in chick embryos. To be noted: for Deaths (embryos / total examined) / Embryonic region affected: Axial skeleton (abnormal embryos / total examined) / Embryonic region affected: CNS (abnormal embryos / total examined) / Embryonic region affected: Heart (abnormal embryos / total examined) / Embryonic region affected: Somites (abnormal embryos / total examined) / Embryonic region affected: Vasculature (abnormal embryos / total examined): 48 h of exposition. As to the method:
A teratogenicity assay was carried out as described by Jelinek et al., Func. Devel. Morph. 4:317-23 (1994). Fertile White Leghorn chicken eggs were obtained from A.L.P.E. S.A. (Puebla, Mexico) and were stored at 6° C. Sixty fertilized eggs were weighed, sterilized, and divided into […]. First group served as a non-treated control. The next three were exposed to the diastereomeric mixture of compound 7 (1, 10, and 100 μM). The last group received caffeine (10 mg/mL) and as positive control. Test solutions (1 mL) were added to the air sac under sterile conditions. Each solution was injected after drilling into the shell at the blunt end of the egg; after injection, the holes were immediately sealed with melted paraffin wax. The eggs were then transferred and maintained in a forced draft incubator at 37.5° C. with a relative humidity of 55% until the desired stage of development was reached.
To determine the concentration dependency of the diastereomeric mixture of compound 7, a histological analysis was carried out. Embryos in each group were fixed in buffered formal saline (pH 7.4), dehydrated, and embedded in paraffin blocks. Paraffin tissue sections of 6 μm were stained with acetocarmine for routine histological examination.

In data set [1] the test system is WRL-68 cells. Briefly: Utilization of glucose in hepatic cells, in vitro hyperglycemia model (glucose and glycogen levels). To be noted: 24 hours; for reduction of extracellular glucose levels: conditioned media, 30 mM D-glucose medium. The class given is cell-based, human. As for the experimental part: WRL-68 cells were thawed and maintained in culture with Minimal Essential Medium (Gibco BRL) containing 4 mM Glutamine, 1% non essential aminoacids (Gibco BRL), 10% Fetal Calf Serum (FCS), and 100 μg/ml of ampicillin. WRL-68 cells were seeded at […] in complete media in 75 cm^2 cell culture flasks, cells were maintained for 24 hours at 37° C. under an atmosphere of 5% CO2. The medium was changed after 24 hr. Cells were passaged by trypsinization using a 0.025% trypsin solution containing 0.01% N,N,-di-ethyldithiocarbamic acid sodium salt (EDTA). In order to evaluate the effect of analog of carnitine on utilization of glucose levels a model of hyperglycemia in vitro (Nakajina et al., J. Biol. Chem. 275:20880-20886 (2000)) was developed. Two days after plating, the medium was changed to F-12K containing 7 mM D-glucose and 10% fetal bovine serum, and the culture was continued for 2 more days. The cells were then cultured in serum-free F-12K medium containing 30 mM D-glucose for 24 h. Cells were treated with the diastereomeric mixture of compound 7 at concentrations of 0.01, 0.1, 1,10, 100 μM, and 1 mM and 2 mM during 24 hours. Samples of conditioned media and cell lysates were kept to […]. Glucose and glycogen levels were measured by using a Glucose PAP-SL Kit (Tech, USA) and glycogen assay kit (Biovision Research Products, California, USA).

The subject of data set [2] is WRL-68 cells.
Description: (§1) Two cell lines were used for this study: 293Q cells derived from normal epithelial cells of human fetal kidney (CRL-1573 ATCC) and WRL-68 cells derived from epithelial cells of human liver (CRL-48 ATCC). Cell lines were cultured in minimal essential medium (MEM, GIBCO BRL Inc., Grand Island, N.Y.), supplemented with nonessential amino acids (GIBCO BRL Inc., Grand Island, N.Y.), 10% fetal calf serum (GIBCO BRL Inc., Grand Island, N.Y.), 1-glutamine (2 mol/L), and antibiotics. Cells were plated in 100-mm culture dishes (10^6 cells/dish), and maintained at 37° C. under an atmosphere of 5% CO2 in humidified air. Subcultures were obtained by trypsinization (0.025% trypsin solution containing 0.01% N,N-diethyldithiocarbamic acid sodium salt, EDTA). For cytological investigation, 10^5 cells per mL of MEM medium were used. […] After incubation of the cells with the extract, they were collected for further cytological investigations.
(§2) Cells were incubated in 96-well plates. After 24 h, the medium was removed; the cells were washed twice with PBS and then incubated with analog. […] Cell viability was measured by a 3-(4,5-dimethylthiazol-2-yl)-2,5-diphenyltetrazolium bromide (MTT) assay (Wang et al., Journal Ocular. Pharm. Ther. 12: 35-43 (1996)). […] When the blue crystals were dissolved, the optical density was determined on a microplate reader at 450 nm. […]

Description for 293Q cells: as §1, §2

For `CC(C)CC(C(O)CP(=O)(O)O)[N+](C)(C)C.[I-]` (single isomer, unassigned) [diastereomeric mixture of compound 7], the “alterations in embryos (histological analysis)” value with chick embryos (in vivo) is “No alterations”. Also, the “reduction of extracellular glucose levels” value with WRL-68 cells [1] (1 μM) came to 16%; in the data set on WRL-68 cells [1] (10 μM), 18%; in the data set on WRL-68 cells [1] (100 μM), 23%; with WRL-68 cells [1] (1 mM) it was 30%; in the data set on WRL-68 cells [1] (2 mM) it was 32%. In addition, the cellular glycogen levels entry in the data set with WRL-68 cells [1] (2 mM) is on record as “increase”. Besides, in the data set on WRL-68 cells [1] (any concentration (0.01 μM to 2 mM)), the “changes in cellular glucose” value was “No changes”. In addition, the “effects on cell proliferation (MTT)” value with WRL-68 cells [2] and in the data set with 293Q cells was “did not show citotoxicity or effects on cell proliferation” each time.

Regarding `CC(C)C[C@@H]([C@@H](O)CP(=O)(O)O)[N+](C)(C)C.[I-]` [compound 7, (2R,3S)-(2-hydroxy-5-methyl-3-trimethylamonium-hexyl)-phosphonic acid; iodide], in the data set on chick embryos (1 μM), the “Deaths (embryos / total examined)” value is recorded as 0/10, the “Embryonic region affected: Axial skeleton (abnormal embryos / total examined)” value is 0/10, the “Embryonic region affected: CNS (abnormal embryos / total examined)” value was 0/10 and the “Embryonic region affected: Heart (abnormal embryos / total examined)” value is on record as 0/10. Moreover, in the data set on chick embryos (1 μM), the “Embryonic region affected: Somites (abnormal embryos / total examined)” value is recorded as 0/10 and the “Embryonic region affected: Vasculature (abnormal embryos / total examined)” value is listed as 0/10. In addition, in the data set on chick embryos (100 μM), the “Deaths (embryos / total examined)” value is given as 0/10, the “Embryonic region affected: Axial skeleton (abnormal embryos / total examined)” value is 0/10, the “Embryonic region affected: CNS (abnormal embryos / total examined)” value was 0/10 and the “Embryonic region affected: Heart (abnormal embryos / total examined)” value was 0/10. Also, in the data set on chick embryos (100 μM), the “Embryonic region affected: Somites (abnormal embryos / total examined)” value is 0/10 and the “Embryonic region affected: Vasculature (abnormal embryos / total examined)” value was 0/10. Also, in the data set on chick embryos (1 mM), the “Deaths (embryos / total examined)” value was 0/10, the “Embryonic region affected: Axial skeleton (abnormal embryos / total examined)” value is on record as 0/10, the “Embryonic region affected: CNS (abnormal embryos / total examined)” value is given as 0/10 and the “Embryonic region affected: Heart (abnormal embryos / total examined)” value is 0/10. In the data set on chick embryos (1 mM), the “Embryonic region affected: Somites (abnormal embryos / total examined)” value is listed as 0/10 and the “Embryonic region affected: Vasculature (abnormal embryos / total examined)” value is recorded as 0/10.

As to `Cn1c(=O)c2c(ncn2C)n(C)c1=O` [Caffeine, caffeine, reference compound], in the data set with chick embryos (positive control, 10 mg/mL), the “Deaths (embryos / total examined)” value is 2/10, the “Embryonic region affected: Axial skeleton (abnormal embryos / total examined)” value is recorded as 10/10, the “Embryonic region affected: CNS (abnormal embryos / total examined)” value is given as 8/10 and the “Embryonic region affected: Heart (abnormal embryos / total examined)” value was 8/10. Moreover, in the data set on chick embryos (positive control, 10 mg/mL), the “Embryonic region affected: Somites (abnormal embryos / total examined)” value was 8/10 and the “Embryonic region affected: Vasculature (abnormal embryos / total examined)” value is 6/10.
